Experimental findings from US10604512B2, “3-(1H-indol-2-yl)-1H-indazoles and therapeutic uses thereof” (Samumed, LLC, priority 2015, dated 2020) are described below.

Molecules are shown by their SMILES. A value given as a limit tells only on which side of the number the result lay.

For this test, the system named is IL-6. Nature of the test: Inhibition of IL-6 in LPS-stimulated THP-1 human monocyte cells (HTRF). It counts as cell-based. Particulars: for EC50: IL-6 inhibition, LPS-stimulated THP-1 cells, HTRF; for inhibition at 10 µM: THP-1, printed beside >10 μM EC50, top concentration 10 μM, meaning not given, read-out: percentage in parentheses after EC50 >10. The method, boiled down:
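THP-1 cells serum-reduced (1% FBS, 24 h), then 5000 cells/well preincubated 2 h with compound (10-point 1:3 series from 10 μM, 0.1% DMSO) before 500 ng/mL LPS for 22 h at 37 °C. Secreted IL-6 quantified by HTRF 665/620 ratio; DMSO-normalised duplicates fitted to four-parameter EC50; above 10 μM, % inhibition at 10 μM given.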

What is called EC50 is the midpoint of the concentration-response curve. As for `O=C(Cc1ccccc1)Nc1cncc(-c2ccc3[nH]nc(-c4cc5ccccc5[nH]4)c3c2)c1` [Compound 262, N-(5-(3-(1H-Indol-2-yl)-1H-indazol-5-yl)pyridin-3-yl)-2-phenylacetamide], the EC50 was > 10000 nM and the inhibition at 10 µM came out at 0%.

For `c1cc(-c2ccncc2)c2cc(-c3n[nH]c4ccc(-c5ccncc5)cc34)[nH]c2c1` [Compound 130, 5-(Pyridin-4-yl)-3-(4-(pyridin-4-yl)-1H-indol-2-yl)-1H-indazole], the EC50 is > 10000 nM and the inhibition at 10 µM was determined as 48.8%.

As to `O=C(Nc1cncc(-c2ccc3[nH]nc(-c4cc5c(-c6ccc(F)cc6)cccc5[nH]4)c3c2)c1)c1ccccc1` [Compound 39, N-(5-(3-(4-(4-Fluorophenyl)-1H-indol-2-yl)-1H-indazol-5-yl)pyridin-3-yl) benzamide], the EC50 is > 10000 nM and the inhibition at 10 µM was 48.3%.

In turn, `c1cncc(-c2ccc3[nH]nc(-c4cc5c(-c6cccs6)cccc5[nH]4)c3c2)c1` [Compound 340, 5-(Pyridin-3-yl)-3-(4-(thiophen-2-yl)-1H-indol-2-yl)-1H-indazole] returned an EC50 of 18 nM.

`CCC(=O)Nc1cncc(-c2ccc3[nH]nc(-c4cc5ccccc5[nH]4)c3c2)c1` [Compound 253, N-(5-(3-(1H-Indol-2-yl)-1H-indazol-5-yl)pyridin-3-yl)propionamide] returned an EC50 of 233 nM.

`Fc1ccc(-c2cccc3[nH]c(-c4n[nH]c5ccc(C6=CCNCC6)cc45)cc23)cc1` [Compound 550, 3-(4-(4-Fluorophenyl)-1H-indol-2-yl)-5-(1,2,3,6-tetrahydropyridin-4-yl)-1H-indazole]: the EC50 is > 10000 nM and the inhibition at 10 µM stood at 33.7%.

With `c1ccc(-c2ccc3[nH]nc(-c4cc5c(-c6ccncc6)cccc5[nH]4)c3c2)nc1` [Compound 140, 5-(Pyridin-2-yl)-3-(4-(pyridin-4-yl)-1H-indol-2-yl)-1H-indazole], a half-maximal effect (EC50) was put at 136 nM.

On to `CC(C)CC(=O)Nc1cncc(-c2ccc3[nH]nc(-c4cc5ncccc5[nH]4)c3c2)c1` [Compound 506, N-(5-(3-(1H-Pyrrolo[3,2-b]pyridin-2-yl)-1H-indazol-5-yl)pyridin-3-yl)-3-methylbutanamide], for which the EC50 was found to be 102 nM.

As to `CCCCC(=O)Nc1cncc(-c2ccc3[nH]nc(-c4cc5c(-c6ccccn6)cccc5[nH]4)c3c2)c1` [Compound 159, N-(5-(3-(4-(Pyridin-2-yl)-1H-indol-2-yl)-1H-indazol-5-yl)pyridin-3-yl) pentanamide], the EC50 was > 10000 nM and the inhibition at 10 µM amounted to 39.3%.

With `O=C(Nc1cncc(-c2ccc3[nH]nc(-c4cc5ccccc5[nH]4)c3c2)c1)C1CCCCC1` [Compound 275, N-(5-(3-(1H-Indol-2-yl)-1H-indazol-5-yl)pyridin-3-yl) cyclohexanecarboxamide], the 50% effective concentration (EC50) is > 10000 nM and the inhibition at 10 µM is 32.5%.

With `CN1CCN(c2cccc3[nH]c(-c4n[nH]c5ccc(-c6cncc(NC(=O)CC7CCNCC7)c6)cc45)cc23)CC1` [Compound 669, N-(5-(3-(4-(4-Methylpiperazin-1-yl)-1H-indol-2-yl)-1H-indazol-5-yl)pyridin-3-yl)-2-(piperidin-4-yl)acetamide], the EC50 was > 10000 nM and the inhibition at 10 µM stood at 25.3%.

`Fc1cccc(-c2cccc3[nH]c(-c4n[nH]c5ccc(C6CCNCC6)cc45)cc23)c1` [Compound 533, 3-(4-(3-Fluorophenyl)-1H-indol-2-yl)-5-(piperidin-4-yl)-1H-indazole] yielded an EC50 of 2800 nM.

With `Fc1ccc(-c2cccc3[nH]c(-c4n[nH]c5ccc(-c6cncnc6)cc45)cc23)cc1` [Compound 55, 3-(4-(4-Fluorophenyl)-1H-indol-2-yl)-5-(pyrimidin-5-yl)-1H-indazole], the EC50 is 488 nM.

As to `c1ccc(-c2cccc3[nH]c(-c4n[nH]c5ccc(-c6ccncc6)cc45)cc23)nc1` [Compound 158, 3-(4-(Pyridin-2-yl)-1H-indol-2-yl)-5-(pyridin-4-yl)-1H-indazole], it took 1580 nM to reach a half-maximal effect (EC50).

With `CS(=O)(=O)NCc1cc(F)cc(-c2cccc3[nH]c(-c4n[nH]c5ccc(-c6ccncc6)cc45)cc23)c1` [Compound 494, N-(3-Fluoro-5-(2-(5-(pyridin-4-yl)-1H-indazol-3-yl)-1H-indol-4-yl)benzyl) methane sulfonamide], the EC50 amounted to 2330 nM.

The molecule `CC(C)CC(=O)Nc1cncc(-c2ccc3[nH]nc(-c4cc5c(-c6ccsc6)cccc5[nH]4)c3c2)c1` [Compound 282, 3-Methyl-N-(5-(3-(4-(thiophen-3-yl)-1H-indol-2-yl)-1H-indazol-5-yl)pyridin-3-yl)butanamide] displayed an EC50 of 977 nM. Compared with the last molecule, the EC50 is about 2.4-fold lower.

As to `CCNCc1cncc(-c2ccc3[nH]nc(-c4cc5c(-c6ccccc6F)cccc5[nH]4)c3c2)c1` [Compound 62, N-((5-(3-(4-(2-Fluorophenyl)-1H-indol-2-yl)-1H-indazol-5-yl)pyridin-3-yl)methyl)ethanamine], the EC50 came to 9930 nM.

Consider `O=C(Cc1ccccc1)Nc1cncc(-c2ccc3[nH]nc(-c4cc5c(-c6ccncc6)cccc5[nH]4)c3c2)c1` [Compound 122, 2-Phenyl-N-(5-(3-(4-(pyridin-4-yl)-1H-indol-2-yl)-1H-indazol-5-yl)pyridin-3-yl)acetamide], for which the EC50 was > 10000 nM and the inhibition at 10 µM came to 29.6%.

In the case of `CCCC(=O)Nc1cncc(-c2ccc3[nH]nc(-c4cc5c(-c6ccc(F)cc6)cccc5[nH]4)c3c2)c1` [Compound 45, N-(5-(3-(4-(4-Fluorophenyl)-1H-indol-2-yl)-1H-indazol-5-yl)pyridin-3-yl)butyramide], the EC50 was > 10000 nM and the inhibition at 10 µM was 44.6%.

Regarding `O=C(Nc1cncc(-c2ccc3[nH]nc(-c4cc5ncccc5[nH]4)c3c2)c1)c1ccccc1` [Compound 515, N-(5-(3-(1H-Pyrrolo[3,2-b]pyridin-2-yl)-1H-indazol-5-yl)pyridin-3-yl) benzamide], the EC50 was 270 nM. In other words, the sub-micromolar range.
